“Also recorded” adds a separate entry of the source.
Assays:
[1] = Analysis of cytotoxicity (WST-1); format: cell-based, human; settings: human, HeLa cells; HeLa, 48 h, WST-1
Experimental: Assay Overview: The purpose of this assay was to determine cytotoxicity of powder samples of test compounds. In this assay, HeLa cells in either serum-free medium or medium containing fetal calf serum (FCS) were incubated with test compounds, followed by determination of cell viability. The assay utilized the WST-1 substrate, which was converted into colorimetric formazan dye by the metabolic activity of viable cells. The amount of formed formazan directly correlated to the number of metabolically active cells in the culture.
Protocol Summary: This assay was started by seeding HeLa cells in DMEM medium supplemented with 10% FCS and 1× Pen-Strep-Glutamine in a 96-well plate. Cells were incubated at 37° C. in a humidified incubator until 80% confluent (24 hours). Medium was removed, and 100 μL of fresh medium (serum-free or supplemented with 10% FCS), pre-mixed with DMSO or test compound, was added to each well. Cells were incubated for 48 hours at 37° C. in a humidified incubator and cell viability was determined by the WST-1 assay (Roche) according to manufacturer instructions. CC50 values were determined from dose-response curves from three replicates at each inhibitor concentration (10, 100, 1000, 10000, 100000 nM), compared to six replicates of cells treated with DMSO only.

LYPLA1 = biological target: T1, LYPLA1 (Mus musculus, UniProt P97823); assay: Gel-based competitive ABPP in vitro, mouse brain membrane proteome; format: biochemical; settings: for inhibition at 0.1 µM: 0.1 μM compound, read-out: LYPLA1 % INH 0.1 μM; for inhibition at 0.1 µM / inhibition at 1 µM / inhibition at 10 µM / inhibition at 100 µM: 30 min, one replicate; for inhibition at 1 µM: 1 μM compound, read-out: LYPLA1 % INH 1 μM; for inhibition at 10 µM: 10 μM compound, read-out: LYPLA1 % INH 10 μM; for inhibition at 100 µM: 100 μM compound, read-out: LYPLA1 % INH 100 μM
T1 construct: a complex proteome endogenously expressing LYPLA1/2 was incubated with test compound; from tissue; host or cells: mouse brain, membrane fraction
Procedure, shortened: (§1)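 Mouse brain membrane proteome (1 mg/mL in DPBS) was treated with compound (0.1-100 μM) for 30 min at 37 °C, then labeled with FP-Rh (2 μM final, 30 min, 25 °C). Bands were resolved by SDS-PAGE and scanned in-gel, with inhibition taken from band optical density versus DMSO. Targets counted as active or anti-targets at ≥50% inhibition.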

LYPLA2 = biological target: T2, LYPLA2 (Mus musculus, UniProt Q9WTL7); assay: as above; format: biochemical; settings: for inhibition at 0.1 µM: 0.1 μM compound, read-out: LYPLA2 % INH 0.1 μM; for inhibition at 0.1 µM / inhibition at 1 µM / inhibition at 10 µM / inhibition at 100 µM: 30 min, one replicate; for inhibition at 1 µM: 1 μM compound, read-out: LYPLA2 % INH 1 μM; for inhibition at 10 µM: 10 μM compound, read-out: LYPLA2 % INH 10 μM; for inhibition at 100 µM: 100 μM compound, read-out: LYPLA2 % INH 100 μM
T2 construct: a complex proteome endogenously expressing LYPLA1/2 was incubated with test compound; from tissue; host or cells: mouse brain, membrane fraction
Procedure, shortened: as §1

human LYPLA1 = biological target: T3, human LYPLA1 (Homo sapiens, UniProt O75608); assay: IC50 by gel-based competitive ABPP in vitro, soluble HeLa cell proteome; format: biochemical; settings: human LYPLA isoform, three replicates; Table 2 prints no unit, nM; read-out: LYPLA1 IC50
T3 construct: endogenous human LYPLA1/2 in a HeLa soluble proteome; endogenous in cells; host or cells: HeLa (soluble proteome in vitro; cultured cells in situ)
Experimental: (§2) Assay Overview: The purpose of this assay was to determine IC50 values of powder samples of test compounds for enzyme of interest activity, and anti-targets in a complex proteomic lysate using a gel-based competitive ABPP assay. In this assay, a complex proteome was incubated with test compound followed by reaction with FP-Rh and SDS-PAGE analysis as described above.
(§3) Protocol Summary: Soluble HeLa cell proteome (50 μL reaction volume, 1 mg/mL in DPBS) or mouse brain membrane proteome (50 μL reaction volume, 1 mg/mL in DPBS) was treated with varying concentrations of test compound (1 μL of a 50× stock in DMSO) for 30 minutes at 37° C. FP-Rh (1 μL of 50× stock in DMSO) was added to a final concentration of 2 μM. The reaction was incubated for 30 minutes at 25° C., quenched with 16 μL 4×SDS-PAGE loading buffer (reducing), separated by SDS-PAGE and visualized by in-gel fluorescent scanning. The percentage activity remaining was determined by measuring the integrated optical density of the enzymes of interest, and anti-target bands relative to a DMSO-only (no compound) control. IC50 values were determined from dose-response curves from three replicates at each inhibitor concentration: 1, 10, 100, 1000, 10000 nM and 0.01, 0.1, 1, 10, 100, 1000, 10000, 50000, and 100000 nM.

human LYPLA2 = biological target: T4, human LYPLA2 (Homo sapiens, UniProt O95372); assay: as above; format: biochemical; settings: human LYPLA isoform, three replicates; Table 2 prints no unit, nM; read-out: LYPLA2 IC50
T4 construct: endogenous human LYPLA1/2 in a HeLa soluble proteome; endogenous in cells; host or cells: HeLa (soluble proteome in vitro; cultured cells in situ)
Experimental: as §2, §3

[2] = tested on: FP-sensitive SHs in the mouse brain membrane proteome; assay: Gel-based competitive ABPP in vitro, mouse brain membrane proteome, anti-targets; format: biochemical; settings: for Anti-target(s) 0.1 μM: SHs with at least 50% inhibition at 0.1 μM compound; for Anti-target(s) 1 μM: SHs with at least 50% inhibition at 1 μM compound; for Anti-target(s) 10 μM: SHs with at least 50% inhibition at 10 μM compound; for Anti-target(s) 100 μM: SHs with at least 50% inhibition at 100 μM compound
Procedure, shortened: as §1

human SHs = assay: ABPP-SILAC analysis to identify SH targets of Compound 5; format: biochemical
From the text: Compound 5 was selected for analysis by mass spectrometry (MS)-based ABPP methods to assess the range of SHs targeted by N-Hydroxy bicyclic hydantoin carbamates.

mABHD3 = biological target: T5, mABHD3 (Mus musculus, UniProt Q91ZH7); assay: Gel-based competitive ABPP, recombinant enzyme in transfected HEK293T cell lysates; format: biochemical; settings: transfected HEK293T lysates, read-out: mABHD3 in vitro potency (IC50)
T5 construct: expressed in transfected cells; host or cells: HEK293T, transient transfection, pCMV-Sport6; lysate used in vitro
T5 sequence (Q91ZH7 1-411): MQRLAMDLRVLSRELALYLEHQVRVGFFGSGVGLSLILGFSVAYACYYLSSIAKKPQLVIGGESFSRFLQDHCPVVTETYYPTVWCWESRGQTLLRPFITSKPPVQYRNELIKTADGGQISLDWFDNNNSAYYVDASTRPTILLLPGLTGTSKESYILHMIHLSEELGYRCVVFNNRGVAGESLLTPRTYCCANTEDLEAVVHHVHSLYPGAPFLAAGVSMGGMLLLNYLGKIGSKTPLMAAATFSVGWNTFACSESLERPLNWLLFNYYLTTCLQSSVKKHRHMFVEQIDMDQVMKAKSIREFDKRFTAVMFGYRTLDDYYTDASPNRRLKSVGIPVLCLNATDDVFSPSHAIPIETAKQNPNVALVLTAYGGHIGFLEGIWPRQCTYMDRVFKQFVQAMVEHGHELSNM
Experimental: (§4) HEK293T cells were seeded at 2×10^5 per well on 6 well plates and grown for 48 h. They were then transfected with mABHD3 (pCMV-Sport6), hABHD4 (pcDNA3.1/myc-his), hPPT1 (pCMV6-XL5), or hPPT1 S115A (pCMV6-XL5), by incubating 0.5 μg of DNA with 3 μL of PEI MAX (1 mg/mL, Polysciences, Inc) in serum-free DMEM for 30 min, then adding them to cells. After 48 h cells were either treated with compound in situ, as described above, or harvested for in vitro studies. The […] PPT1 mutation was introduced using QuikChange II Site Directed Mutagenesis Kit (Agilent) with the following primers: […]
Human ABHD3 and ABHD4 were recombinantly expressed by transient transfection in HEK293T cells, and the cell lysates were combined to provide a convenient assay for monitor inhibition of both enzymes by gel-based ABPP (see FIG. 8A).

ABHD4 = biological target: T6, ABHD4 (Homo sapiens, UniProt Q8TB40); assay: as above; format: biochemical; parameters: myc-his; expressed in transfected cells; host or cells: HEK293T, transient transfection, pcDNA3.1/myc-his; lysate used in vitro; settings: recombinant; for IC50: transfected HEK293T lysates, read-out: hABHD4 in vitro potency (IC50)
T6 sequence (Q8TB40 1-342): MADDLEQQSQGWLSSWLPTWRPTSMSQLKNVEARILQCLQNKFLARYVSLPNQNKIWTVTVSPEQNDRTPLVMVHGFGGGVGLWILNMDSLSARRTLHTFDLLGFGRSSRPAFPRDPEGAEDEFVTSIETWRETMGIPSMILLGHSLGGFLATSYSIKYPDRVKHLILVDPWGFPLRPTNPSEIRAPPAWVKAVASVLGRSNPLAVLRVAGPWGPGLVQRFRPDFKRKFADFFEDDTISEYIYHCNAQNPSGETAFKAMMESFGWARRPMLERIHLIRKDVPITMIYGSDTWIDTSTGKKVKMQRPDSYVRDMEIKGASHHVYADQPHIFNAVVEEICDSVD
Experimental: as §4
Human ABHD3 and ABHD4 were recombinantly expressed by transient transfection in HEK293T cells, and the cell lysates were combined to provide a convenient assay for monitor inhibition of both enzymes by gel-based ABPP (see FIG. 8A). […]

[3] = 20 μM, mouse brain (mem) proteome

T1 sequence (P97823 whole entry): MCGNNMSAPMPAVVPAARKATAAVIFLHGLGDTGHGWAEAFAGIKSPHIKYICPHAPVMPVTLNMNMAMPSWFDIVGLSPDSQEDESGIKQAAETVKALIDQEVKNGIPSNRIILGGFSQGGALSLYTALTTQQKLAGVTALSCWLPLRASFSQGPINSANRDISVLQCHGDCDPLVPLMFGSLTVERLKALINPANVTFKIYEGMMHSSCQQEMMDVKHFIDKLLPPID
T2 sequence (Q9WTL7 whole entry): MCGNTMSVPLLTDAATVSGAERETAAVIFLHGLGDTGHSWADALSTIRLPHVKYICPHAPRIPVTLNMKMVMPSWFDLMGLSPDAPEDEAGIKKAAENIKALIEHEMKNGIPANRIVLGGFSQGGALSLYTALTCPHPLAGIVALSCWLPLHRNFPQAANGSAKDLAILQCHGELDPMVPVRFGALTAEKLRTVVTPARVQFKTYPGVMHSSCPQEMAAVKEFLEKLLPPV
T4 sequence (O95372 whole entry, canonical isoform): as the sequence (Q9WTL7 whole entry) above, with N154A, T193S counted along it
T3 sequence (O75608 whole entry, canonical isoform): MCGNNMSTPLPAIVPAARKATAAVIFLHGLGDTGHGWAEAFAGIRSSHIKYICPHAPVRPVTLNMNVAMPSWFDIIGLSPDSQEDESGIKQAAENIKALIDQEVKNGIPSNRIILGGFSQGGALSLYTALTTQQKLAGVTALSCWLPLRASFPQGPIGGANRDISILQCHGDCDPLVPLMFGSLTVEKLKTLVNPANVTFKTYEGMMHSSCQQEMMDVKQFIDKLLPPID

| Compound | inhibition at 0.1 µM (LYPLA1) | inhibition at 1 µM (LYPLA1) | inhibition at 10 µM (LYPLA1) | inhibition at 100 µM (LYPLA1) | inhibition at 0.1 µM (LYPLA2) | inhibition at 1 µM (LYPLA2) | inhibition at 10 µM (LYPLA2) | inhibition at 100 µM (LYPLA2) | IC50 (mABHD3) | IC50 (ABHD4) | Anti-target(s) 0.1 μM [2] | Anti-target(s) 1 μM [2] | Anti-target(s) 10 μM [2] | Anti-target(s) 100 μM [2] | also measured |
| --- | --- | --- | --- | --- | --- | --- | --- | --- | --- | --- | --- | --- | --- | --- | --- |
| O=C(ON1C(=O)C2CN(C(=O)N3CCCCC3)CCN2C1=O)N1CCC(CCc2ccc(Cl)cc2)CC1 (stereo not shown) [Compound 2, 1,3-dioxo-7-(piperidine-1-carbonyl)hexahydroimidazo[1,5-a]pyrazin-2(3H)-yl 4-(4-chlorophenethyl)piperidine-1-carboxylate] | 50% | 100% | 100% | 100% | 50% | 100% | 100% | 100% |  |  | ABHD6 | FAAH,; also recorded: ABHD6 | FAAH,; also recorded: ABHD12,; also recorded: ABHD4,; also recorded: MAGL,; also recorded: ABHD6 | FAAH,; also recorded: ABHD12,; also recorded: ABHD4,; also recorded: MAGL,; also recorded: ABHD6 | CC50 at 48 h [1]: ≥ 10 µM; IC50 (human LYPLA1): 154 nM; IC50 (human LYPLA2): 258 nM |
| CC(C)(C)OC(=O)N1CCN2C(=O)N(OC(=O)N3CCC(CCc4ccc(Cl)cc4)CC3)C(=O)C2C1 (stereo not shown) [Compound 5, tert-butyl 2-(4-(4-chlorophenethyl)piperidine-1-carbonyloxy)-1,3-dioxohexahydroimidazo[1,5-a]pyrazine-7(1H)-carboxylate] | 50% | 80% | 100% | 100% | 50% | 80% | 100% | 100% |  |  | ABHD6 | FAAH,; also recorded: ABHD6 | FAAH,; also recorded: ABHD12,; also recorded: ABHD6 | FAAH,; also recorded: ABHD12,; also recorded: MAGL,; also recorded: ABHD6 | SHs inhibited by Compound 5 (three-fold or greater decrease in signal) (human SHs): ABHD6 and MGLL and ABHD4 and ABHD12 and PLA2G15 and PNPLA4 |
| COC(=O)C1CCN(C(=O)ON2C(=O)C3CN(Cc4ccc(Oc5ccccc5)cc4)CCN3C2=O)CC1 (stereo not shown) [Compound 31, 1-(1,3-dioxo-7-(4-phenoxybenzyl)hexahydroimidazo[1,5-a]pyrazin-2(3H)-yl) 4-methyl piperidine-1,4-dicarboxylate] |  |  |  |  |  |  |  |  | > 10 µM | 8.2 µM |  |  |  |  | LYPLA1 in vitro enzyme activity, % @ 20 μM (LYPLA1; [3]): 0% @; LYPLA2 in vitro enzyme activity, % @ 20 μM (LYPLA2; [3]): 0% @ |

Continued, in another order:

| inhibition at 0.1 µM (LYPLA1) | inhibition at 1 µM (LYPLA1) | inhibition at 10 µM (LYPLA1) | inhibition at 100 µM (LYPLA1) | inhibition at 0.1 µM (LYPLA2) | inhibition at 1 µM (LYPLA2) | inhibition at 10 µM (LYPLA2) | inhibition at 100 µM (LYPLA2) | IC50 (mABHD3) | IC50 (ABHD4) | Compound | Anti-target(s) 0.1 μM [2] | Anti-target(s) 1 μM [2] | Anti-target(s) 10 μM [2] | Anti-target(s) 100 μM [2] | also measured |
| --- | --- | --- | --- | --- | --- | --- | --- | --- | --- | --- | --- | --- | --- | --- | --- |
|  |  |  |  |  |  |  |  | > 10 µM | 1 µM | O=C(ON1C(=O)C2CN(Cc3cccc(Oc4ccccc4)c3)CCN2C1=O)N1CCC(CCc2ccc(Cl)cc2)CC1 (stereo not shown) [Compound 35, 1,3-dioxo-7-(3-phenoxybenzyl)hexahydroimidazo[1,5-a]pyrazin-2(3H)-yl 4-(4-chlorophenethyl)piperidine-1-carboxylate] |  |  |  |  |  |
|  |  |  |  |  |  |  |  | > 10 µM | 0.2 µM | COc1ccc(N2CCN(C(=O)ON3C(=O)C4CN(Cc5cccc(Oc6ccccc6)c5)CCN4C3=O)CC2)cc1 (stereo not shown) [Compound 36, 1,3-dioxo-7-(3-phenoxybenzyl)hexahydroimidazo[1,5-a]pyrazin-2(3H)-yl 4-(4-methoxyphenyl)piperazine-1-carboxylate] |  |  |  |  | preference ABHD4 over ABHD3 (ABHD4; combined HEK293T lysates, gel-based ABPP): preferentially inhibited ABHD4 over ABHD3 |
